EC50 data for one compound are collected here from patent US20250325684A1, “POTENT ANTI-CANCER CYCLOTIDES” (University of Southern California, priority 2022, published 2025).

Bridge positions count the residues as written; N and C are the ends. Square brackets hold non-standard residues; d marks the D form. Peptide text beside a SMILES is read from it.

The subject of this experiment is HCT116^−/−. Description: MTT cell viability, HCT116 p53-null cells. It counts as cell-based, human. To be noted: HCT116^−/− colon carcinoma, p53 Null; MTT; read-out: EC50. Here is the method: Cell viability assay in several human cancer cell lines (See Tables 1 to 10). Cell lines were cultured in RPMI 1640 (or recommended medium when indicated) medium supplemented with 10% fetal calf serum, penicillin (50 IU/mL) and streptomycin ([…]) at 37° C. in 5% CO2. Cell viability studies was carried using the MTT (3-(4,5-dimethylthiazol-2-yl)-2,5-diphenyltetrazolium bromide) assay as previously described (31). Briefly, ≈2×10^3 CRC cells were be seeded in 96-well microtiter plates in 100 μL RPMI 1640 in the presence of 10% calf serum. […] After 1 h, 210 μL/well of full complemented media was added, the cells were grown for 48 h and then treated with 20 μL of a solution of MTT (5 mg/mL) for 2 h. The medium was discarded and DMSO ([…]) was added to each well and incubated with gentle shaking for 20 min at room temperature. The absorbance at 595 nm of the solution is analyzed using a Tecan Genios Multifunctional Microplate Reader (Tecan System Inc) and the background at 670 nm subtracted. RNA-Seq analysis was performed using state-of-the-art bioinformatics tools. Briefly, raw RNA-Seq reads were mapped to human genome (hg38) using STAR aligner (v2.7.3a). Gencode Release 36 reference was used for annotation. Transcript and gene expression levels were quantified using the IsoEM (37) with default parameters. […]
Cell viability was evaluated using the MTT assay as described above.

With `N=C(N)NCCC[C@@H]1NC(=O)[C@@H](CCCNC(=N)N)NC(=O)[C@H](CCCCN)NC(=O)[C@@H](N)CCCCNC(=O)CC[C@@H](C(=O)O)NC(=O)[C@@H](CCCNC(=N)N)NC(=O)[C@H](CCCNC(=N)N)NC(=O)[C@@H](CCCCN)NC(=O)[C@H](CCCCN)NC(=O)[C@@H](CCCNC(=N)N)NC(=O)CNC(=O)[C@@H](CCCNC(=N)N)NC1=O` [cTAT] (H-KK[dR]R[dR]G[dR]K[dK]R[dR]E-OH; lactam 1-12; N-terminus and C-terminus assumed), the EC50 was over 100 µM.

What is called EC50 is the midpoint of the concentration-response curve.
